Reference: ChEMBL document CHEMBL5154649, “Design, synthesis, and characterization of novel aminoalcohol quinolines with strong in vitro antimalarial activity” (Eur J Med Chem, 2022)

What was measured:
[1] = Cytotoxicity against human HepG2 cells assessed as reduction in cell viability incubated for 72 hrs by MTT assay; assay type: toxicity, cell-based
Plasmodium falciparum [2] = experiment: Selectivity index, ratio of IC50 for antiplasmodial activity against CQ-susceptible Plasmodium falciparum 3D7 to IC50 for antiplasmodial activity CQ-resistant Plasmodium falciparum W2 by HRP2-ELISA; assay type: functional
Plasmodium falciparum [3] = experiment: Antiplasmodial activity CQ-resistant Plasmodium falciparum W2 infected in human erythrocytes assessed as inhibition of parasite growth measured after 72 hrs by HRP2-ELISA; assay type: functional, organism-based; conditions: W2, Erythrocyte
[4] = Selectivity index, ratio of IC50 for cytotoxicity against chinese hamster CHO cells to IC50 for antiplasmodial activity against Plasmodium falciparum 3D7 infected in human erythrocytes by HRP2-ELISA; assay type: toxicity, cell-based; conditions: read-out: Ratio IC50
Plasmodium falciparum [5] = experiment: Selectivity index, ratio of IC50 for antiplasmodial activity against CQ-susceptible Plasmodium falciparum 3D7 to IC50 for antiplasmodial activity against CQ-resistant Plasmodium falciparum W2 by SYBR Green 1 dye based fluorescence assay; assay type: functional
[6] = Cytotoxicity against human HFF cells assessed as reduction in cell viability incubated for 72 hrs by MTT assay; assay type: toxicity, cell-based
[7] = Selectivity index, ratio of IC50 for cytotoxicity against human HepG2 cells to IC50 for antiplasmodial activity against Plasmodium falciparum 3D7 infected in human erythrocytes by HRP2-ELISA; assay type: toxicity, cell-based; conditions: read-out: Ratio IC50
[8] = Selectivity index, ratio of IC50 for cytotoxicity against human THP-1 cells to IC50 for antiplasmodial activity against Plasmodium falciparum 3D7 infected in human erythrocytes by HRP2-ELISA; assay type: toxicity, cell-based; conditions: read-out: Ratio IC50
[9] = Selectivity index, ratio of IC50 for human HFF cells to IC50 for antiplasmodial activity against Plasmodium falciparum 3D7 infected in human erythrocytes by HRP2-ELISA; assay type: toxicity, cell-based; conditions: read-out: Ratio IC50
Plasmodium falciparum [10] = experiment: Antiplasmodial activity against CQ-susceptible Plasmodium falciparum 3D7 assessed as inhibition of parasite growth measured after 48 hrs by SYBR Green 1 dye based fluorescence assay; assay type: functional, organism-based; conditions: 3D7, 48 h
Plasmodium falciparum [11] = experiment: Antiplasmodial activity against CQ-susceptible Plasmodium falciparum 3D7 infected in human erythrocytes assessed as inhibition of parasite growth measured after 72 hrs by HRP2-ELISA; assay type: functional, organism-based; conditions: 3D7, Erythrocyte
[12] = Cytotoxicity against human THP-1 cells assessed as reduction in cell viability incubated for 72 hrs by MTT assay; assay type: toxicity, cell-based
[13] = Cytotoxicity against Chinese hamster CHO cells assessed as reduction in cell viability incubated for 24 hrs by MTT assay; assay type: toxicity, cell-based, Cricetulus griseus
Plasmodium falciparum [14] = experiment: Antiplasmodial activity against CQ-resistant Plasmodium falciparum W2 assessed as inhibition of parasite growth measured after 48 hrs by SYBR Green 1 dye based fluorescence assay; assay type: functional, organism-based; conditions: W2, 48 h

Row | SMILES | IC50 at 72 h [1] | Ratio IC50 (Plasmodium falciparum [2]) | IC50 (Plasmodium falciparum [3]) | selectivity ratio [4] | Ratio IC50 (Plasmodium falciparum [5]) | IC50 at 72 h [6] | selectivity ratio [7] | selectivity ratio [8] | selectivity ratio [9] | IC50 (Plasmodium falciparum [10]) | IC50 (Plasmodium falciparum [11]) | IC50 at 72 h [12] | IC50 at 24 h [13] | IC50 (Plasmodium falciparum [14])
1 | O[C@@H](CNCCCC(F)(F)F)c1cc(C(F)(F)F)nc2c(C(F)(F)F)cccc12 | 29700 nM | 1 | 229 nM | 199 | 0.9 | 14600 nM | 130 | 144 | 64 | 57.6 nM | 227 nM | 32800 nM | 45400 nM | 61 nM
2 | O[C@@H](CNCC1CC1)c1cc(C(F)(F)F)nc2c(C(F)(F)F)cccc12 | 6600 nM | 1.2 | 15.3 nM | 1420 | 1.4 | 48400 nM | 369 | 693 | 2700 | 23 nM | 17.9 nM | 12400 nM | 25400 nM | 16.8 nM
3 | CCNCc1cc(Nc2ccnc3cc(Cl)ccc23)ccc1O [DESETHYL AMODIAQUINE] | – | 0.25 | 100 nM | – | – | – | – | – | – | – | 24.7 nM | – | – | –
4 | O[C@@H](CNCCNC(c1ccccc1)c1ccccc1)c1cc(C(F)(F)F)nc2c(C(F)(F)F)cccc12 | 8800 nM | 2.4 | 20.7 nM | 233 | 1.05 | 43900 nM | 177 | 100 | 881 | 35.8 nM | 49.8 nM | 5000 nM | 11600 nM | 34 nM
5 | C[C@H]1[C@@H](O)O[C@@H]2O[C@@]3(C)CC[C@H]4[C@H](C)CC[C@@H]1[C@@]24OO3 [ARTENIMOL] | – | 0.9 | 3 nM | – | – | – | – | – | – | – | 2.8 nM | – | – | –
6 | C=C[C@H]1CN2CC[C@H]1C[C@H]2[C@H](O)c1ccnc2ccc(OC)cc12 [QUININE] | – | 0.2 | 474 nM | – | – | – | – | – | – | – | 74.2 nM | – | – | –
7 | OC[C@@H](Cc1ccccc1)NC[C@@H](O)c1cc(C(F)(F)F)nc2c(C(F)(F)F)cccc12 (single isomer, unassigned) | 15400 nM | 1.2 | 82.7 nM | 345 | 3.5 | 45400 nM | 151 | 73 | 444 | 35.6 nM | 102 nM | 7500 nM | 35800 nM | 10.3 nM
8 | OC[C@@H](Cc1ccccc1)NC[C@H](O)c1cc(C(F)(F)F)nc2c(C(F)(F)F)cccc12 | 16800 nM | 1.7 | 63.8 nM | 250 | 0.7 | 37400 nM | 158 | 73 | 351 | 36.2 nM | 106 nM | 7800 nM | 26600 nM | 54.3 nM
9 | O[C@H](CNCCCC(F)(F)F)c1cc(C(F)(F)F)nc2c(C(F)(F)F)cccc12 | 7600 nM | 0.85 | 18.2 nM | 2560 | 1.3 | 35600 nM | 493 | > 8120 | 2310 | 11.4 nM | 15.4 nM | > 125000 nM | 39500 nM | 8.55 nM
10 | O[C@@H](CN1CCN(C(c2ccccc2)c2ccccc2)CC1)c1cc(C(F)(F)F)nc2c(C(F)(F)F)cccc12 | – | – | – | – | 1.8 | – | – | – | – | 53.6 nM | – | – | – | 29.3 nM
11 | OC[C@H](Cc1ccccc1)NC[C@@H](O)c1cc(C(F)(F)F)nc2c(C(F)(F)F)cccc12 | 10900 nM | 1.5 | 39.4 nM | 511 | 5.4 | 25400 nM | 188 | 124 | 437 | 30.2 nM | 58.1 nM | 7200 nM | 29700 nM | 5.6 nM
12 | COc1cccc2c1C(=O)c1c(O)c3c(c(O)c1C2=O)C[C@@](O)(C(=O)CO)C[C@@H]3O[C@H]1C[C@H](N)[C@H](O)[C@H](C)O1 [DOXORUBICIN] | – | – | – | – | – | – | – | – | – | – | – | 20 nM | 3600 nM | –
13 | O[C@H](CNCC1CC1)c1cc(C(F)(F)F)nc2c(C(F)(F)F)cccc12 | 4300 nM | 0.8 | 15.8 nM | 2400 | 1 | 18500 nM | 333 | 534 | 1430 | 4.1 nM | 12.9 nM | 6900 nM | 31000 nM | 4.1 nM
14 | COC[C@H](Cc1ccccc1)NC[C@H](O)c1cc(C(F)(F)F)nc2c(C(F)(F)F)cccc12 | 9600 nM | 1.5 | 15.4 nM | 1620 | 1.5 | 36700 nM | 414 | 728 | 1580 | 17.4 nM | 23.2 nM | 16900 nM | 37600 nM | 11.4 nM
15 | O[C@H](CNCCN1CCN(C(c2ccccc2)c2ccccc2)CC1)c1cc(C(F)(F)F)nc2c(C(F)(F)F)cccc12 | 7000 nM | 1.3 | 89.3 nM | 213 | 1.2 | 13300 nM | 60 | 93 | 114 | 75.7 nM | 116 nM | 10800 nM | 24800 nM | 63 nM
16 | OC[C@@H](NC[C@@H](O)c1cc(C(F)(F)F)nc2c(C(F)(F)F)cccc12)c1ccccc1 | – | – | – | – | 9.6 | – | – | – | – | 94.4 nM | – | – | – | 9.8 nM
17 | C[C@H](CO)NC[C@@H](O)c1cc(C(F)(F)F)nc2c(C(F)(F)F)cccc12 (single isomer, unassigned) | – | – | – | – | 6.85 | – | – | – | – | 68.5 nM | – | – | – | 10 nM
18 | O[C@H](CNCCCN1CCN(CCCNC[C@@H](O)c2cc(C(F)(F)F)nc3c(C(F)(F)F)cccc23)CC1)c1cc(C(F)(F)F)nc2c(C(F)(F)F)cccc12 | – | – | – | – | > 1.9 | – | – | – | – | > 1000 nM | – | – | – | 534 nM
19 | O[C@H](CNCCNC(c1ccccc1)c1ccccc1)c1cc(C(F)(F)F)nc2c(C(F)(F)F)cccc12 | 6400 nM | 1.7 | 14.1 nM | 377 | 1.2 | 16600 nM | 268 | 372 | 694 | 35.2 nM | 23.9 nM | 8900 nM | 9000 nM | 29.6 nM
20 | O[C@H](CN1CCN(C(c2ccccc2)c2ccccc2)CC1)c1cc(C(F)(F)F)nc2c(C(F)(F)F)cccc12 | – | – | – | – | 1.1 | – | – | – | – | 39 nM | – | – | – | 36.7 nM
21 | COC[C@H](C)NC[C@H](O)c1cc(C(F)(F)F)nc2c(C(F)(F)F)cccc12 | – | – | – | – | 2.8 | – | – | – | – | 14.4 nM | – | – | – | 5.1 nM
22 | OC[C@H](NC[C@@H](O)c1cc(C(F)(F)F)nc2c(C(F)(F)F)cccc12)c1ccccc1 | – | – | – | – | 10.3 | – | – | – | – | 103 nM | – | – | – | 10.1 nM
23 | OC[C@H](Cc1ccccc1)NC[C@H](O)c1cc(C(F)(F)F)nc2c(C(F)(F)F)cccc12 (single isomer, unassigned) | 22700 nM | 1.2 | 61.9 nM | 470 | 9.4 | 53700 nM | 303 | 123 | 718 | 30.9 nM | 74.8 nM | 9200 nM | 35200 nM | 3.3 nM
24 | C[C@H](CO)NC[C@H](O)c1cc(C(F)(F)F)nc2c(C(F)(F)F)cccc12 | – | – | – | – | 4.8 | – | – | – | – | 48.2 nM | – | – | – | 10.1 nM
25 | O[C@H](CNCCN1CCN(C[C@@H](O)c2cc(C(F)(F)F)nc3c(C(F)(F)F)cccc23)CC1)c1cc(C(F)(F)F)nc2c(C(F)(F)F)cccc12 | – | – | – | – | 5.8 | – | – | – | – | 361 nM | – | – | – | 61.8 nM
26 | O[C@@H](CNCCCN1CCN(CCCNC[C@H](O)c2cc(C(F)(F)F)nc3c(C(F)(F)F)cccc23)CC1)c1cc(C(F)(F)F)nc2c(C(F)(F)F)cccc12 | – | – | – | – | > 3.1 | – | – | – | – | > 1000 nM | – | – | – | 321 nM
27 | CC(C)(CO)NC[C@H](O)c1cc(C(F)(F)F)nc2c(C(F)(F)F)cccc12 | – | – | – | – | 3.15 | – | – | – | – | 99.3 nM | – | – | – | 31.5 nM
28 | O[C@@H](CNCCN1CCN(C[C@H](O)c2cc(C(F)(F)F)nc3c(C(F)(F)F)cccc23)CC1)c1cc(C(F)(F)F)nc2c(C(F)(F)F)cccc12 | – | – | – | – | 2.5 | – | – | – | – | 453 nM | – | – | – | 182 nM
